In US4025533A, “5-Bromo-5-nitro-2-alkylsubstituted-1,3-dioxane” (Eli Lilly and Company, priority 1976, dated 1977):
≈ marks a conversion by molar mass, not a printed value.

Columns and labels:
human skin [1] = details: prior art; cited from earlier work
Propionibacterium acnes = test: conventional tube dilution test, anaerobic; assay type: cell-based; details: Cutibacterium acnes, medium pH 6.9, read-out: minimum inhibitory concentration
Method: For example, 5-bromo-2-methyl-5-nitro-1,3-dioxane (Compound C) was tested against Propionibacterium acnes (formerly called Corynebacterium acnes) in a conventional tube dilution test. A simultaneous test was run utilizing 2-bromo-2-nitropropane,1,3-diol (Compound A) and 5-bromo-5-nitro-1,3-dioxane (Compound B) as the antimicrobials.
The test against Propionibacterium acnes were run anaerobically in the following medium:
(§1) Distilled water q.s. -- 1000 ml
The pH of the medium was 6.9

[2] = prior art; cited from earlier work
Streptococcus faecalis [3] = test: conventional tube dilution test (Table I); assay type: cell-based; details: Enterococcus faecalis, 48 h, antibiotic Number 3 medium, two days at 37° C., read-out: Minimum Inhibitory Concentration
Method: (§2) The in vitro antimicrobial activities of Compounds A, B and C, 5-bromo-2-ethyl-5-nitro-1,3-dioxane (Compound D), 5-bromo-5-nitro-2-n-propyl-1,3-dioxane (Compound E), and 5-bromo-2-isopropyl-5-nitro-1,3-dioxane (Compound F) were determined concurrently against Pseudomonas aeruginosa, Staphylococcus aureus, Escherichia coli, and Streptococcus faecalis in a conventional tube dilution test. The medium used was antibiotic Number 3 [CFR 436.102(3)] and the concentration of organisms was 10^4 organisms per ml of medium, with each tube being inoculated with 0.1 ml of inoculum. The figures shown in Table I are the lowest concentrations in mcg of active compound/ml of medium where no growth occurred in the medium after two days' incubation at 37° C.

Escherichia coli [4] = test: conventional tube dilution test (Table I); assay type: cell-based; details: 48 h, antibiotic Number 3 medium, two days at 37° C., read-out: Minimum Inhibitory Concentration
Method: as §2

Staphylococcus aureus [5] = test: conventional tube dilution test (Table I); assay type: cell-based; details: 48 h, antibiotic Number 3 medium, two days at 37° C., read-out: Minimum Inhibitory Concentration
Method: as §2

Pseudomonas aeruginosa [6] = test: conventional tube dilution test (Table I); assay type: cell-based; details: 48 h, antibiotic Number 3 medium, two days at 37° C., read-out: Minimum Inhibitory Concentration
Method: as §2

human skin [7] = details: in vivo
Source text: Two-hundred subjects were employed in each investigation. The repeated insult technique was used in the patch test. A different group of subjects were utilized for each evaluation.
The technique used for the patch test called for a series of 9 induction patches of each test material to be placed on each of the subjects. The series was followed two weeks later by a single "challenge" patch of each test material to detect skin sensitization.
The series of nine induction patches was applied on Monday, Wednesday and Thursday and allowed to contact the skin for 24 hours, after which time they were removed and the skin sites graded for irritation. Thursday's patches were placed immediately after removal and grading of Wednesday's applications. After the ninth induction patches had been placed, a non-patching period of 2 weeks elapsed before the challenge patches were applied to detect sensitization reactions. For this 24-hour patch, a new skin site was used. This site was invariably chosen adjacent to an induction site; i.e., one where repeated applications had been made during the series of nine induction patches. The challenge applications were graded at 24 and 72 hours after application.
The skin applications for each material were made using oval-shaped adhesive patches (1" × 11/4") with circular gauze centers. The gauze centers were coated with approximately 0.03 ml. of the respective test material just prior to application.
The scoring criteria used for skin irritation reactions and in evaluating the sensitization evidenced on the challenge application follows:
Four separate formulations of each compound were tested along with two formulations of parabens.
A reading of 5 or more on the 8-point scale was deemed to be indicative of the development of skin sensitization to the test compound.

Aspergillus niger [8] = test: in vitro agar plate determination (Table VII); assay type: cell-based; details: agar plates at 10, 25 and 50 mcg. per ml., 24 hours, read-out: Minimum Inhibitory Concentration
Method: (§3) The antimicrobial activities of […] (Compound G) were determined concurrently with 5-bromo-2-methyl-5-nitro-1,3-dioxane (Compound C) and 5-bromo-5-nitro-1,3-dioxane (Compound B) against the same six organisms shown in Table II. […] The tests were in vitro determinations utilizing agar plates containing the active compound at 10, 25 and 50 mcg. per ml. of agar. The organisms, at concentrations of 10^6 organisms per milliliter, were streaked on the solidified agar. The plates were incubated for 24 hours and the presence or absence of growth noted. The minimum inhibitory concentration (MIC) was determined as the lowest active compound concentration in the agar where no growth occurred.

Streptococcus faecalis [9] = test: in vitro agar plate determination (Table VII); assay type: cell-based; details: Enterococcus faecalis; agar plates at 10, 25 and 50 mcg. per ml., 24 hours; read-out: Minimum Inhibitory Concentration
Method: as §3

Escherichia coli [10] = test: in vitro agar plate determination (Table VII); assay type: cell-based; details: agar plates at 10, 25 and 50 mcg. per ml., 24 hours, read-out: Minimum Inhibitory Concentration
Method: as §3

Staphylococcus aureus [11] = test: in vitro agar plate determination (Table VII); assay type: cell-based; details: agar plates at 10, 25 and 50 mcg. per ml., 24 hours, read-out: Minimum Inhibitory Concentration
Method: as §3

Candida albicans [12] = test: in vitro agar plate determination (Table VII); assay type: cell-based; details: agar plates at 10, 25 and 50 mcg. per ml., 24 hours, read-out: Minimum Inhibitory Concentration
Method: as §3

Pseudomonas aeruginosa [13] = test: in vitro agar plate determination (Table VII); assay type: cell-based; details: agar plates at 10, 25 and 50 mcg. per ml., 24 hours, read-out: Minimum Inhibitory Concentration
Method: as §3

Aspergillus niger [14] = test: agar plate system (Table II); assay type: cell-based; details: antibiotic medium 22, 72 hours at 30° C., read-out: Minimum Inhibitory Concentration
Method: (§4) The antimicrobial activities of Compounds A, B, C, D, E and F were also determined in an agar plate system. The compounds were added to melted and cooled (50° C.) agar in twofold concentration increments from 50 mcg per ml of agar to 1.56 mcg per ml of agar. Antibiotic medium 1 [CFR 436.102(1)] was used for testing of Pseudomonas aeruginosa, Staphylococcus aureus, Escherichia coli, and Streptococcus faecalis, but antibiotic medium 22 [CFR 436.102(22)] was used for testing of Candida albicans and Aspergillus niger. Organism suspensions containing 10^6 organisms per ml were used as stock suspensions. Sterile cotton swabs were dipped in the suspensions and then streaked across the solidified agar. The figures shown in Table II were the lowest concentrations at which no growth occurred after 72 hours at 30° C. These values were interpreted as the minimum inhibitory concentration (MIC).

Streptococcus faecalis [15] = test: agar plate system (Table II); assay type: cell-based; details: Enterococcus faecalis, antibiotic medium 1, 72 hours at 30° C., read-out: Minimum Inhibitory Concentration
Method: as §4

Escherichia coli [16] = test: agar plate system (Table II); assay type: cell-based; details: antibiotic medium 1, 72 hours at 30° C., read-out: Minimum Inhibitory Concentration
Method: as §4

Staphylococcus aureus [17] = test: agar plate system (Table II); assay type: cell-based; details: antibiotic medium 1, 72 hours at 30° C., read-out: Minimum Inhibitory Concentration
Method: as §4

Candida albicans [18] = test: agar plate system (Table II); assay type: cell-based; details: antibiotic medium 22, 72 hours at 30° C., read-out: Minimum Inhibitory Concentration
Method: as §4

Pseudomonas aeruginosa [19] = test: agar plate system (Table II); assay type: cell-based; details: antibiotic medium 1, 72 hours at 30° C., read-out: Minimum Inhibitory Concentration
Method: as §4

Aspergillus terreus = test: In Vitro Antifungal Activity, agar plates (Table III); assay type: cell-based; details: 72 h, three days at 25° C., pH 5.7, read-out: Minimum Inhibitory Concentration
Method: (§5) Compounds A, B, and C were tested further to determine antifungal activity. The compounds were added to melted and cooled (50° C.) agar to obtain concentrations of 100, 50, 25, 12.5, 6.25 and 0.0 mcg per ml of agar. After the agar solidified, sterile cotton swabs were dipped in stock suspensions of the organisms (10^6 organisms per ml of physiological saline) and then streaked across the agar. After three days' incubation at 25° C., concentrations which prevented growth were recorded as the minimal inhibitory concentration. The composition of the medium used in this study was as follows:
(§6) Calcium carbonate -- 0.5 g
(§7) V-8 juice filtrate -- 200.0 ml
as §1
(§8) The pH was adjusted to 5.7.

[20] = system: Fusarium oxysporum cubense; test: as above; assay type: cell-based; details: 72 h, three days at 25° C., pH 5.7, read-out: Minimum Inhibitory Concentration
Method: as §5, §6, §7, §1, §8

Rhodotorula glutinis = test: as above; assay type: cell-based; details: 72 h, three days at 25° C., pH 5.7, read-out: Minimum Inhibitory Concentration
Method: as §5, §6, §7, §1, §8

Aspergillus fumigatus = test: as above; assay type: cell-based; details: 72 h, three days at 25° C., pH 5.7, read-out: Minimum Inhibitory Concentration
Method: as §5, §6, §7, §1, §8

Botrytis cinerea = test: as above; assay type: cell-based; details: 72 h, three days at 25° C., pH 5.7, read-out: Minimum Inhibitory Concentration
Method: as §5, §6, §7, §1, §8

[21] = system: Saccharomyces pastorianus; test: as above; assay type: cell-based; details: 72 h, three days at 25° C., pH 5.7, read-out: Minimum Inhibitory Concentration
Method: as §5, §6, §7, §1, §8

Microsporum gypseum = test: as above; assay type: cell-based; details: Nannizzia gypsea, 72 h, three days at 25° C., pH 5.7, read-out: Minimum Inhibitory Concentration
Method: as §5, §6, §7, §1, §8

Penicillium notatum = test: as above; assay type: cell-based; details: Penicillium chrysogenum, 72 h, three days at 25° C., pH 5.7, read-out: Minimum Inhibitory Concentration
Method: as §5, §6, §7, §1, §8

Colletotrichum phomoides = test: as above; assay type: cell-based; details: 72 h, three days at 25° C., pH 5.7, read-out: Minimum Inhibitory Concentration
Method: as §5, §6, §7, §1, §8

Chaetomium globosum = test: as above; assay type: cell-based; details: 72 h, three days at 25° C., pH 5.7, read-out: Minimum Inhibitory Concentration
Method: as §5, §6, §7, §1, §8

human skin [22] = test: Human Repeated Insult Patch Test, induction series (irritation); details: in vivo
Source text: The following protocol was followed in testing each compound.
Two-hundred subjects were employed in each investigation.

[23] = chemical stability towards pH / alkali; assay type: physicochemical; details: pH 5-9
[24] = solubility in water and mineral oil; assay type: physicochemical; details: compared with other species of the invention
microorganisms = test: antimicrobial tests on isomeric mixtures; assay type: cell-based; details: one high in the cis- form, the other high in the trans- form
Method: The novel compounds of this embodiment of the present invention, exemplified in Examples 1, 2, 3, and 4 can exist as cis- and trans-isomers. The procedure outlined in Example 1 produces a ratio of isomers of about 9:1. It is the intent of this invention to include both geometric isomers as chemical entities as well as the isomeric mixture. […] Consequently, the utility tests described hereinafter were conducted employing the isomeric mixture (about 9:1) prepared as detailed in Example 1.

Structure (SMILES)	MIC (Propionibacterium acnes)	MIC (Streptococcus faecalis [3])	MIC (Escherichia coli [4])	MIC (Staphylococcus aureus [5])	MIC (Pseudomonas aeruginosa [6])	subjects evaluated as being sensitive on the challenge test (human skin [7])	MIC (Aspergillus niger [8])	MIC (Streptococcus faecalis [9])	MIC (Escherichia coli [10])	MIC (Staphylococcus aureus [11])	MIC (Candida albicans [12])	MIC (Pseudomonas aeruginosa [13])	MIC (Aspergillus niger [14])	MIC (Streptococcus faecalis [15])	MIC (Escherichia coli [16])	MIC (Staphylococcus aureus [17])	MIC (Candida albicans [18])	MIC (Pseudomonas aeruginosa [19])	MIC (Aspergillus terreus)	MIC [20]	also measured
O=[N+]([O-])C1(Br)COCOC1 [Compound B, 5-bromo-5-nitro-1,3-dioxane, reference compound]	6.25 µg/mL (≈ 29.5 µM)	25 µg/mL (≈ 118 µM)	25 µg/mL (≈ 118 µM)	25 µg/mL (≈ 118 µM)	25 µg/mL (≈ 118 µM)	11 subjects	50 µg/mL (≈ 236 µM)	< 10 µg/mL	< 10 µg/mL	25 µg/mL (≈ 118 µM)	25 µg/mL (≈ 118 µM)	25 µg/mL (≈ 118 µM)	25 µg/mL (≈ 118 µM)	12.5 µg/mL (≈ 59 µM)	6.25 µg/mL (≈ 29.5 µM)	12.5 µg/mL (≈ 59 µM)	12.5 µg/mL (≈ 59 µM)	12.5 µg/mL (≈ 59 µM)	25 µg/mL (≈ 118 µM)	< 6.25 µg/mL	irritation and sensitization in human subjects (human skin [1]): induces irritation and sensitization in a significant number of human subjects; chemical stability towards alkali [2]: does possess chemical stability towards alkali; sensitizing effect (human skin [7]): marked sensitizing effect; MIC (Rhodotorula glutinis): 50 µg/mL (≈ 236 µM); MIC (Aspergillus fumigatus): < 6.25 µg/mL; MIC (Botrytis cinerea): 50 µg/mL (≈ 236 µM); MIC [21]: 100 µg/mL (≈ 472 µM); MIC (Microsporum gypseum): 50 µg/mL (≈ 236 µM); MIC (Penicillium notatum): 25 µg/mL (≈ 118 µM); MIC (Colletotrichum phomoides): 100 µg/mL (≈ 472 µM); MIC (Chaetomium globosum): < 6.25 µg/mL; irritation readings compared with the 2-methyl derivative (human skin [22]): more severe
CC1OCC(Br)([N+](=O)[O-])CO1 (stereo not drawn) [Compound C, 5-bromo-2-methyl-5-nitro-1,3-dioxane]	6.25 µg/mL (≈ 27.7 µM)	25 µg/mL (≈ 111 µM)	25 µg/mL (≈ 111 µM)	25 µg/mL (≈ 111 µM)	25 µg/mL (≈ 111 µM)	none	12.5 µg/mL (≈ 55.3 µM)	12.5 µg/mL (≈ 55.3 µM)	12.5 µg/mL (≈ 55.3 µM)	12.5 µg/mL (≈ 55.3 µM)	6.25 µg/mL (≈ 27.7 µM)	25 µg/mL (≈ 111 µM)	12.5 µg/mL (≈ 55.3 µM)	12.5 µg/mL (≈ 55.3 µM)	12.5 µg/mL (≈ 55.3 µM)	12.5 µg/mL (≈ 55.3 µM)	6.25 µg/mL (≈ 27.7 µM)	25 µg/mL (≈ 111 µM)	12.5 µg/mL (≈ 55.3 µM)	12.5 µg/mL (≈ 55.3 µM)	chemical stability at pH [23]: chemically stable at pH's from 5.0 to 9.0; solubility in water and oil, qualitative [24]: superior solubility in water and oil; antimicrobial activity of isomeric mixtures (microorganisms): equal activity; MIC (Rhodotorula glutinis): 100 µg/mL (≈ 442 µM); MIC (Aspergillus fumigatus): < 6.25 µg/mL; MIC (Botrytis cinerea): 12.5 µg/mL (≈ 55.3 µM); MIC [21]: > 100 µg/mL; MIC (Microsporum gypseum): 100 µg/mL (≈ 442 µM); MIC (Penicillium notatum): 25 µg/mL (≈ 111 µM); MIC (Colletotrichum phomoides): 100 µg/mL (≈ 442 µM); MIC (Chaetomium globosum): < 6.25 µg/mL
